“And” between values parts separate entries of the source, which are not always exact repeats. Identical values can stand only once. Inconclusive results and toxic doses are left out.
System: BDF1 mice, P388 leukemia ip, median survival T/C
Experiment: NCI In Vivo Anticancer Drug Screen. Data for tumor model P388 Leukemia (intraperitoneal) in B6D2F1 (BDF1) mice
Details: endpoint: median survival time, higher = longer survival
Summary of the method: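 Each value expresses how treatment altered survival: treated-mouse outcome over vehicle-mouse outcome, both groups bearing the transplanted tumour.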

[1] = dose: 50.0 mg/kg/injection, schedule: Q01DX009 (ip), vehicle: saline with Tween-80
[2] = dose: 50.0 mg/kg/injection, schedule: Q01DX009 (ip), vehicle: saline
[3] = dose: 100.0 mg/kg/injection, schedule: Q01DX009 (ip), vehicle: saline with Tween-80
[4] = dose: 100.0 mg/kg/injection, schedule: Q01DX009 (ip), vehicle: saline
[5] = dose: 200.0 mg/kg/injection, schedule: Q01DX009 (ip), vehicle: saline with Tween-80
[6] = dose: 200.0 mg/kg/injection, schedule: Q01DX009 (ip), vehicle: saline
[7] = dose: 50.0 mg/kg/injection, schedule: Q04DX003 (ip), vehicle: saline
[8] = dose: 100.0 mg/kg/injection, schedule: Q04DX003 (ip), vehicle: saline with Tween-80
[9] = dose: 200.0 mg/kg/injection, schedule: Q04DX003 (ip), vehicle: saline with Tween-80
[10] = dose: 400.0 mg/kg/injection, schedule: Q04DX003 (ip), vehicle: saline with Tween-80
[11] = dose: 100.0 mg/kg/injection, schedule: Q01DX009 (ip), vehicle: Klucel (hydroxypropylcellulose) (HPC)
[12] = dose: 100.0 mg/kg/injection, schedule: Q04DX003 (ip), vehicle: Klucel (hydroxypropylcellulose) (HPC)
[13] = dose: 200.0 mg/kg/injection, schedule: Q04DX003 (ip), vehicle: Klucel (hydroxypropylcellulose) (HPC)
[14] = dose: 12.5 mg/kg/injection, schedule: Q01DX009 (ip), vehicle: saline with Tween-80
[15] = dose: 25.0 mg/kg/injection, schedule: Q01DX009 (ip), vehicle: saline with Tween-80

With `C/C=C/C1=C(Cl)C(=O)[C@@H](Cl)[C@@]1(O)C(=O)OC` the T/C (dose: 0.31 mg/kg/injection, schedule: Q01DX009 (ip), vehicle: saline with Tween-80) was 106 % of control, the T/C (dose: 0.63 mg/kg/injection, schedule: Q01DX009 (ip), vehicle: saline with Tween-80) was 115 % of control and the T/C (dose: 1.25 mg/kg/injection, schedule: Q01DX009 (ip), vehicle: saline with Tween-80) was 106 % of control and 117 % of control. The T/C (dose: 2.5 mg/kg/injection, schedule: Q01DX001 (ip), vehicle: saline with Tween-80) was 106 % of control, the T/C (dose: 2.5 mg/kg/injection, schedule: Q04DX003 (ip), vehicle: saline with Tween-80) was 105 % of control and the T/C (dose: 4.4 mg/kg/injection, schedule: Q01DX009 (ip), vehicle: saline with Tween-80) was 121 % of control. For the same compound, the T/C (dose: 5.0 mg/kg/injection, schedule: Q01DX001 (ip), vehicle: saline with Tween-80) was 101 % of control, the T/C (dose: 5.0 mg/kg/injection, schedule: Q04DX003 (ip), vehicle: saline with Tween-80) was 110 % of control and the T/C (dose: 6.6 mg/kg/injection, schedule: Q01DX009 (ip), vehicle: saline with Tween-80) was 122 % of control. For the same compound, the T/C (dose: 8.8 mg/kg/injection, schedule: Q01DX009 (ip), vehicle: saline with Tween-80) was 114 % of control, the T/C (dose: 10.0 mg/kg/injection, schedule: Q01DX001 (ip), vehicle: saline with Tween-80) was 108 % of control and the T/C (dose: 10.0 mg/kg/injection, schedule: Q04DX003 (ip), vehicle: saline with Tween-80) was 108 % of control. For the same compound, the T/C (dose: 13.3 mg/kg/injection, schedule: Q01DX009 (ip), vehicle: saline with Tween-80) was 123 % of control, the T/C (dose: 17.0 mg/kg/injection, schedule: Q01DX001 (ip), vehicle: saline with Tween-80) was 119 % of control and the T/C (dose: 20.0 mg/kg/injection, schedule: Q01DX001 (ip), vehicle: saline with Tween-80) was 112 % of control.
`OC(CN1CCCCC1)c1cc(-c2ccccc2)no1` (stereo unspecified) was tested, and the T/C (dose: 25.0 mg/kg/injection, schedule: Q01DX009 (ip), vehicle: saline) was 100 % of control, the T/C [1] was 100 % of control and the T/C [2] was 105 % of control. The T/C [3] was 100 % of control, the T/C [4] was 107 % of control and the T/C [5] was 105 % of control. The T/C [6] was 88 % of control.
For `Nc1ncnc2c(C3OC(CO)C(O)C3O)[nH]nc12` (stereo unspecified), the T/C (dose: 1.5 mg/kg/injection, schedule: Q01DX009 (ip), vehicle: saline) was 100 % of control, the T/C (dose: 2.3 mg/kg/injection, schedule: Q01DX009 (ip), vehicle: saline) was 109 % of control and the T/C (dose: 8.0 mg/kg/injection, schedule: Q01DX009 (ip), vehicle: saline) was 113 % of control. For the same compound, the T/C (dose: 12.5 mg/kg/injection, schedule: Q01DX009 (ip), vehicle: saline) was 159 % of control, the T/C (dose: 33.0 mg/kg/injection, schedule: Q04DX003 (ip), vehicle: saline) was 104 % of control and the T/C [7] was 114 % of control. For the same compound, the T/C (dose: 75.0 mg/kg/injection, schedule: Q04DX003 (ip), vehicle: saline) was 95 % of control and the T/C (dose: 100.0 mg/kg/injection, schedule: Q04DX003 (ip), vehicle: saline sonified) was 118 % of control.
`CC(C)CCC(=O)C(C)C` was tested, and the T/C [8] was 91 % of control, the T/C [9] was 100 % of control and the T/C [10] was 95 % of control.
With `COC(C)C(O)(C(N)=O)C(C)C` (stereo unspecified) the T/C [11] was 95 % of control, the T/C [12] was 100 % of control and the T/C (dose: 200.0 mg/kg/injection, schedule: Q01DX009 (ip), vehicle: Klucel (hydroxypropylcellulose) (HPC)) was 86 % of control. The T/C [13] was 100 % of control, the T/C (dose: 400.0 mg/kg/injection, schedule: Q01DX009 (ip), vehicle: Klucel (hydroxypropylcellulose) (HPC)) was 90 % of control and the T/C (dose: 400.0 mg/kg/injection, schedule: Q04DX003 (ip), vehicle: Klucel (hydroxypropylcellulose) (HPC)) was 100 % of control.
For `N#CCCSC(=S)C1CCCC1=N` (stereo unspecified), the T/C [3] was 112 % of control and the T/C [5] was 102 % of control.
With `O=C(Nc1ccc(C2=NCCN2)cc1)C1CCC(C(=O)Nc2ccc(C3=NCCN3)cc2)CC1` (stereo unspecified) the T/C [8] was 150 % of control, the T/C [9] was 179 % of control and the T/C (dose: 264.0 mg/kg/injection, schedule: Q04DX003 (ip), vehicle: saline with Tween-80) was 228 % of control and 200 % of control. For the same compound, the T/C [10] was 225 % of control and 229 % of control and 240 % of control and the T/C (dose: 600.0 mg/kg/injection, schedule: Q04DX003 (ip), vehicle: saline with Tween-80) was 240 % of control and 245 % of control.
For `COc1ccc(OC)c(/C=C/c2ccnc3ccccc23)c1`, the T/C (dose: 50.0 mg/kg/injection, schedule: Q01DX010 (ip), vehicle: saline) was 95 % of control, the T/C (dose: 100.0 mg/kg/injection, schedule: Q01DX010 (ip), vehicle: saline) was 110 % of control and the T/C (dose: 200.0 mg/kg/injection, schedule: Q01DX010 (ip), vehicle: saline) was 150 % of control. The T/C (dose: 400.0 mg/kg/injection, schedule: Q01DX010 (ip), vehicle: saline) was 165 % of control.
With `CCOC(=O)/C=C(\C)C(=O)c1ccc(OC)c(OC)c1OCc1ccccc1` the T/C [14] was 100 % of control, the T/C [15] was 100 % of control and the T/C [1] was 90 % of control. For the same compound, the T/C [3] was 90 % of control and the T/C [5] was 100 % of control.
`COc1ccc(/C=N/NC(=O)C[n+]2ccccc2)c(OC)c1` was tested, and the T/C [15] was 104 % of control, the T/C (dose: 25.0 mg/kg/injection, schedule: Q04DX003 (ip), vehicle: saline with Tween-80) was 118 % of control and the T/C [1] was 109 % of control. For the same compound, the T/C (dose: 50.0 mg/kg/injection, schedule: Q04DX003 (ip), vehicle: saline with Tween-80) was 104 % of control, the T/C [3] was 100 % of control and the T/C [8] was 104 % of control.
For `Clc1ccc2nnnn2n1`, the T/C (dose: 16.25 mg/kg/injection, schedule: Q01DX009 (ip), vehicle: saline with Tween-80) was 99 % of control, the T/C (dose: 32.5 mg/kg/injection, schedule: Q01DX009 (ip), vehicle: saline with Tween-80) was 101 % of control and the T/C (dose: 40.0 mg/kg/injection, schedule: Q01DX009 (ip), vehicle: saline with Tween-80) was 97 % of control. For the same compound, the T/C (dose: 80.0 mg/kg/injection, schedule: Q01DX009 (ip), vehicle: saline with Tween-80) was 111 % of control and the T/C (dose: 130.0 mg/kg/injection, schedule: Q01DX009 (ip), vehicle: saline with Tween-80) was 151 % of control.
`CCCCCC(C)(C1=NC(C)(C)CC(C)O1)c1ccccc1` (stereo unspecified) was tested, and the T/C (dose: 12.5 mg/kg/injection, schedule: Q01DX001 (ip), vehicle: saline sonified) was 100 % of control, the T/C (dose: 25.0 mg/kg/injection, schedule: Q01DX001 (ip), vehicle: saline sonified) was 100 % of control and the T/C (dose: 50.0 mg/kg/injection, schedule: Q01DX001 (ip), vehicle: saline sonified) was 100 % of control.
With `CC(C)(/C=C/c1ccccc1)C(=O)O` the T/C [1] was 95 % of control, the T/C [3] was 102 % of control and the T/C [5] was 100 % of control.
With `CCCCNC1=C(N2CC2)C(=O)C(NCCCC)=C(N2CC2)C1=O` the T/C (dose: 1.25 mg/kg/injection, schedule: Q01DX009 (ip), vehicle: saline) was 107 % of control and the T/C (dose: 5.0 mg/kg/injection, schedule: Q01DX009 (ip), vehicle: saline) was 87 % of control.
`Cc1ccc(S(=O)(=O)OCC2C3CCCC2C3)cc1` (stereo unspecified) was tested, and the T/C [1] was 101 % of control, the T/C [3] was 100 % of control and the T/C [5] was 96 % of control.
With `NNC(=O)c1ccc(Br)cc1` the T/C (dose: 50.0 mg/kg/injection, schedule: Q01DX009 (ip), vehicle: Klucel (hydroxypropylcellulose) (HPC)) was 96 % of control, the T/C [11] was 92 % of control and the T/C [12] was 95 % of control. The T/C [13] was 91 % of control.
With `O=C1Oc2ccccc2C1=O` the T/C [2] was 100 % of control, the T/C [7] was 100 % of control and the T/C [4] was 100 % of control. The T/C (dose: 100.0 mg/kg/injection, schedule: Q04DX003 (ip), vehicle: saline) was 100 % of control and the T/C (dose: 200.0 mg/kg/injection, schedule: Q04DX003 (ip), vehicle: saline) was 100 % of control.
With `NCCCC(N)(CO)C(=O)O` (stereo unspecified) the T/C [2] was 91 % of control, the T/C [4] was 97 % of control and the T/C [6] was 100 % of control.
In the case of `CCN(CC)CCCNc1ncnc2onc(C)c12`, the T/C [8] is reported as 101 % of control, the T/C [9] is reported as 97 % of control and the T/C [10] is reported as 106 % of control.
For `O=C1OCC/C1=C1/Nc2ccccc2NC1=O`, the T/C [14] was 105 % of control, the T/C [15] was 100 % of control and the T/C [1] was 96 % of control.
With `O=S(=O)(O)c1cc(S(=O)(=O)O)c2cc(N=Nc3ccc(N(CC4CO4)CC4CO4)cc3)ccc2c1` (stereo unspecified) the T/C (dose: 100.0 mg/kg/injection, schedule: Q01DX001 (ip), vehicle: saline) was 108 % of control, the T/C (dose: 200.0 mg/kg/injection, schedule: Q01DX001 (ip), vehicle: saline) was 102 % of control and the T/C (dose: 400.0 mg/kg/injection, schedule: Q01DX001 (ip), vehicle: saline) was 113 % of control.
In the case of `CC1OC(Oc2c(-c3cc(O)c(O)c(O)c3)oc3cc(O)cc(O)c3c2=O)C(O)C(O)C1O` (stereo unspecified), the T/C [1] is reported as 119 % of control and the T/C [3] is reported as 100 % of control.
For `c1ccc2c(c1)nnn1c3ncccc3nc21`, the T/C [1] was 115 % of control.
